The record followed here is patent US10975303B2, “Additive for soil conditioning and an agricultural composition containing said additive for plant growth” (priority 2019, dated 2021).

What all share (format): in vivo
For one experiment, the system named is Pigeon pea crop. The experiment is described as follows: Yield and yield attributes of pigeon pea (Test-5). On the procedure:
The study was carried out with and without the additive of the present disclosure in different plots at a village in […] District (Gujarat). The Pigeon pea crop was planted in 90 cm between two rows and 20 cm of two plants under fields. The result pertaining to plant height, number of branches per plant, number of pods per plant, grain and haulm yield of pigeon pea crop recorded at harvest as influenced by additive of the present disclosure is summarized in Table-7a. Further, the effect of the plant growth regulator and agricultural composition and the comparative results obtained are summarized in Table-7b.

The test system of the next experiment is onion. The experiment is described as follows: Growth, yield and yield attributes of onion (Test-3). On the procedure:
The method of testing effect of additive 10 on different properties of soil was similar to the method as disclosed in Test-1 of Experiment-2, except time period which is 2 months instead of 9 months. The effect of additive was tested on soil using additive 10.
The effect of the additive 10, agricultural composition and agricultural composition along with fertilizer prepared in accordance with the present disclosure on the growth of onion was studied. Additive 10 prepared in Experiment 1 was used for the study. The study was conducted in the presence and in absence of the additive of the present disclosure to determine the effect of the additive on onion. Further, the effect of agricultural composition and agricultural composition along with fertilizer was studied. The study was carried out at a village in Bhavnagar District (Gujarat). The study was carried out in Two Plots: one plot, the additive of the present disclosure application and the other plot, urea application under Spacing of two rows and plants (15 cm×10 cm).
The effect of additive 10, agricultural composition and agricultural composition along with fertilizer on growth, yield and yield attributes of onion was carried and the comparative results obtained are summarized in Table-5a.

A further experiment deals with pigeon pea (Toor). Nature of the experiment: Comparative report of parameters for pigeon pea (Toor), Table 7 (protein, energy, ash, minerals). The settings on record: pigeon pea (Toor) trial.

Take `NC(N)=O` [urea]: in the experiment on Pigeon pea crop, the Grain yield came out at 1060 kg/ha and the Haulm yield is 1285 kg/ha. Moreover, in the experiment on Pigeon pea crop (at harvest), the “Number of branches per plant” value is 10.0, the “Number of pods per plant” value was 172.0 and the Plant height is on record as 133.0 cm. In the experiment on onion, this molecule displayed an Ave. bulb weight of 51.50 g, a Bulb yield of 34.30 t/ha, a Leaf area of 930 cm² and a Plant height of 56.00 cm. The Energy with pigeon pea (Toor) was determined as 355.01 Kcal/100 gm. Besides, the “Total Ash” value in the experiment with pigeon pea (Toor) (LOQ 0.1) stood at 3.94 gm/100 gm. The “Total Protein” value in the experiment on pigeon pea (Toor) (LOQ 0.5) is given as 16.47 gm/100 gm. For the same molecule, in the experiment on pigeon pea (Toor) (LOQ 2.5), the “Calcium (as Ca)” value is 508.85 mg/kg, the “Iron (as Fe)” value is 11.48 mg/kg, the “Manganese (as Mn)” value is 4.71 mg/kg and the “Zinc (as Zn)” value came out at 10.99 mg/kg.
